Source: paper PMC9788223, “Biodegradation of Free Gossypol by Helicoverpa armigera Carboxylesterase Expressed in Pichia pastoris” (Toxins, 2022)

Columns and labels:
[1] = target: T1, CarE CCE001a (Helicoverpa armigera, UniProt D9IV61); assay: free gossypol depletion by HPLC; products by UPLC-QTOF/MS; type: cell-based; details: PBS, NADPH-Na4 added, 37 °C, 1.5 h, dark; recombinant protein from P. pastoris expression, purification not described
T1 construct: no purification described
T1 sequence (D9IV61 17-555): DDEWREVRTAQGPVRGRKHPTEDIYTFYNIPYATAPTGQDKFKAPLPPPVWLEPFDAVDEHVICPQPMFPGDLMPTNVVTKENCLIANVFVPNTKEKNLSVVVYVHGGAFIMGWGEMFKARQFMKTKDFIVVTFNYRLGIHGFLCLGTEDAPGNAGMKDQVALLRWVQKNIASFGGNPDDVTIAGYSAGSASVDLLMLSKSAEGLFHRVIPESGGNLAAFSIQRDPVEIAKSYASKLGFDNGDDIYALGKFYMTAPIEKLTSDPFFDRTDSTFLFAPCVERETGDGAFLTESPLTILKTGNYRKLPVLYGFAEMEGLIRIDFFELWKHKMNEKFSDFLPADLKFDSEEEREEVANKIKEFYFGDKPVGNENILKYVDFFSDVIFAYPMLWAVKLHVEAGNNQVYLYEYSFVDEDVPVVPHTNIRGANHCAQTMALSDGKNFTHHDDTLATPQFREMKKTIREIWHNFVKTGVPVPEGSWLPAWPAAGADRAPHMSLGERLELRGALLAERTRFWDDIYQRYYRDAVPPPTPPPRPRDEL

[2] = target: T1, CarE CCE001a; assay: esterase activity, absorbance at […] nm; type: cell-based; details: 37 °C; recombinant protein from P. pastoris expression, purification not described

| Structure (SMILES) | free gossypol depletion by HPLC; products by UPLC-QTOF/MS [1] | esterase activity, absorbance at 450 nm [2] |
| --- | --- | --- |
| Cc1cc2c(C(C)C)c(O)c(O)c(C=O)c2c(O)c1-c1c(C)cc2c(C(C)C)c(O)c(O)c(C=O)c2c1O [Gossypol] | Under the influence of recombinant CarE, TG and FG levels decreased rapidly in the experimental group |  |
| CC(=O)Oc1cccc2ccccc12 [alpha-naphthyl acetate] |  | We also evaluated the enzyme activity of the recombinant CCE001a protein with the model substrate |
